This is an account of results in ChEMBL document CHEMBL4390670, “4-Aryl Pyrrolidines as a Novel Class of Orally Efficacious Antimalarial Agents. Part 1: Evaluation of 4-Aryl- N-benzylpyrrolidine-3-carboxamides” (J Med Chem, 2019).

Data set [1] deals with Voltage-gated inwardly rectifying potassium channel KCNH2 (Homo sapiens, UniProt Q12809).
Description: Inhibition of Tracer Red binding to human ERG expressed in membranes by fluorescence polarization assay
In data set [2] the test system is Plasmodium falciparum. The experiment in a line: microbe, parasite or virus in culture. The note with it: 3D7, 72 h.
Description: (§1) Antimalarial activity against chloroquine-sensitive Plasmodium falciparum 3D7 measured after 72 hrs by SYBR Green 1 dye based fluorescence assay
Data set [3] relates to hERG. The experiment in a line: in vitro. The conditions noted are these: human, membranes expressing human ERG, probe Tracer Red.
Description: Selectivity ratio of IC50 for inhibition of Tracer Red binding to human ERG expressed in membranes to IC50 for chloroquine-sensitive Plasmodium falciparum 3D7
For data set [4], the system named is Plasmodium falciparum.
Description: as §1
The target of data set [5] is Plasmepsin II (Plasmodium falciparum, UniProt P46925). Put plainly: Inhibition of Plasmodium falciparum plasmepsin 2 using EDANS-CO-CH2-CH2-CO-ALERMFLSFP-Dap(DABCYL)OH as substrate measured after 60 mins by fluorescence assay.
Plasmepsin II, sequence (P46925 whole entry): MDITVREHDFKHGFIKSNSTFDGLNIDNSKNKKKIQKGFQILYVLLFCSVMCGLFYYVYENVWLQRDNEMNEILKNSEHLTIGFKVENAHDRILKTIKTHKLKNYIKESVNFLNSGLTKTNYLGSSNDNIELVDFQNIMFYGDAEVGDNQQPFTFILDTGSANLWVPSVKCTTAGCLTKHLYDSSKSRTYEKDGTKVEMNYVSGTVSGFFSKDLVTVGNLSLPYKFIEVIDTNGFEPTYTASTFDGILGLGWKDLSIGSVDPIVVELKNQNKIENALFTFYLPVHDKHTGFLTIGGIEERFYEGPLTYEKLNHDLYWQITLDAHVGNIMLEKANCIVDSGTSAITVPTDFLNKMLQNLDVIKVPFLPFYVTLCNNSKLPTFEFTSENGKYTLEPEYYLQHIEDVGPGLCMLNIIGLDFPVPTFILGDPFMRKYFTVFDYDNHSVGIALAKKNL
Data set [6] has as its target Plasmepsin 4 (Plasmodium falciparum, UniProt Q17SB2). The experiment in a line: Inhibition of Plasmodium falciparum plasmepsin 4 using EDANS-CO-CH2-CH2-CO-ALERMFLSFP-Dap(DABCYL)OH as substrate measured after 60 mins by fluorescence assay.
Data set [7] can be described thus: Intrinsic clearance in mouse liver microsomes at 1 uM measured after 30 mins in presence of NADPH by LC-MS/MS analysis. The data set is classed as ADME, Microsome. The conditions noted are these: 0.5 h. (Liver microsomes are a subcellular fraction often used to study metabolism.)
The target of data set [8] is Beta-secretase 1 (Homo sapiens, UniProt P56817). Put plainly: Inhibition of recombinant human C-terminal His10-tagged BACE1 using Mca-SEVNLDAEFRK(Dpn)RR-NH2 as substrate measured after 60 mins by TR-FRET assay. In general terms: Time-resolved FRET reads energy transfer from a long-lived donor to a nearby acceptor.
Beta-secretase 1, sequence (P56817 whole entry): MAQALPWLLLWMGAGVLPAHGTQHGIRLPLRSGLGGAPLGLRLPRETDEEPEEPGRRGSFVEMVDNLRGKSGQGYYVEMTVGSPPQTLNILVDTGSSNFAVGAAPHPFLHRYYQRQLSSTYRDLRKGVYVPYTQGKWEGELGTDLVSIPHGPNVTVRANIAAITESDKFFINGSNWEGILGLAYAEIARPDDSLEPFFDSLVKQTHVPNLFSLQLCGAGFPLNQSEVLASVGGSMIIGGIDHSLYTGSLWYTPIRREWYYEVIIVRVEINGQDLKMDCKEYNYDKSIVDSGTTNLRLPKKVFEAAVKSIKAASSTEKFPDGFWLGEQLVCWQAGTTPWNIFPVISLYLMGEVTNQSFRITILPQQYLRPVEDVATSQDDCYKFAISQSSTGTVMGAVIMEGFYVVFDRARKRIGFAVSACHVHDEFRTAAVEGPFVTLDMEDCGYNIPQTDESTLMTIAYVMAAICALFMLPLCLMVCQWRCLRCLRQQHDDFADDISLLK
Data set [9] can be described thus: Half life in mouse liver microsomes at 1 uM measured after 30 mins in presence of NADPH by LC-MS/MS analysis. The data set is classed as ADME, Microsome. The conditions noted are these: for t1/2: microsomes, 0.5 h, 1 µM.
For data set [10], the system named is Plasmodium falciparum. Put plainly: Inhibition of Plasmodium falciparum plasmepsin 9 by Western blot analysis.
In data set [11] the target is Plasmepsin V (Plasmodium falciparum (isolate 3D7)) (UniProt Q8I6Z5). Put plainly: Inhibition of Plasmodium falciparum plasmepsin 5 by knockdown assay.
Plasmepsin V (Plasmodium falciparum (isolate 3D7)), sequence (Q8I6Z5 whole entry, looked up): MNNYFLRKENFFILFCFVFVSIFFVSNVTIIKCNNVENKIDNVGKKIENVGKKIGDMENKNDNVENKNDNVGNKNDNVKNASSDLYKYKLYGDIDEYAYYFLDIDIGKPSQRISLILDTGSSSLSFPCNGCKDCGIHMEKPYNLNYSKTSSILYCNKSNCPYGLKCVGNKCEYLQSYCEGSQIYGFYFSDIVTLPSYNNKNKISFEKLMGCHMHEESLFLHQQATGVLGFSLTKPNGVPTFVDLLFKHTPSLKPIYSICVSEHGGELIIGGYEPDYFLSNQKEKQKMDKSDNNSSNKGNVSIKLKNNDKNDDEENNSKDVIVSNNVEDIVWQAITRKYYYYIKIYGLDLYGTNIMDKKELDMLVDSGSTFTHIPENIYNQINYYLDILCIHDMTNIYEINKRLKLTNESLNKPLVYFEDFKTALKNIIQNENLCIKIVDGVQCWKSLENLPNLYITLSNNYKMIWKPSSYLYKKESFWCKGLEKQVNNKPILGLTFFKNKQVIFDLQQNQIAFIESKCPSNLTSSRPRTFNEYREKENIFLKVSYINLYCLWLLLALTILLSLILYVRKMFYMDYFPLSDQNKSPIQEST
For data set [12], the system named is HepG2. The experiment in a line: Cytotoxicity against human HepG2 cells measured after 72 hrs by PrestoBlue cell viability reagent based assay. The conditions noted are these: HepG2, 72 h.
Data set [13] has as its system Plasmodium falciparum. The experiment in a line: Inhibition of Plasmodium falciparum plasmepsin 10 by Western blot analysis.
A short description of data set [14]: Apparent clearance in mouse at 1 mg/kg, iv by LC-MS analysis. It is filed as ADME, organism-based. The conditions noted are these: in vivo, read-out: CL(app).
Data set [15] can be described thus: Half life in mouse at 1 mg/kg, iv by LC-MS analysis. The conditions noted are these: in vivo. The data set is classed as ADME, organism-based.
Data set [16] is described as follows: Apparent volume of distribution in mouse at 1 mg/kg, iv by LC-MS analysis. The data set is classed as ADME, organism-based. The conditions noted are these: in vivo, read-out: Vz.
For data set [17], the system named is Plasmodium chabaudi. The experiment in a line: Antimalarial activity against chloroquine-resistant Plasmodium chabaudi ASCQ infected in NIH mouse assessed as inhibition of parasitemia at 10 mg/kg, po administered once daily for 4 days starting from 4 hrs post-infection and measured on day 4 by Peter's 4 day test relative to control. It is filed as functional.

Calls of active or inactive are those of the source. Where only a bound is given, the exact number is not on record here.

One may read the IC50 as the concentration that gives 50% inhibition. The half-life is the time needed for the level to fall by half in the phase considered. Broadly, the inhibition in vivo is the change of the read-out against control, counted positive when it falls.

Plasmepsin 4, sequence (Q17SB2 whole entry): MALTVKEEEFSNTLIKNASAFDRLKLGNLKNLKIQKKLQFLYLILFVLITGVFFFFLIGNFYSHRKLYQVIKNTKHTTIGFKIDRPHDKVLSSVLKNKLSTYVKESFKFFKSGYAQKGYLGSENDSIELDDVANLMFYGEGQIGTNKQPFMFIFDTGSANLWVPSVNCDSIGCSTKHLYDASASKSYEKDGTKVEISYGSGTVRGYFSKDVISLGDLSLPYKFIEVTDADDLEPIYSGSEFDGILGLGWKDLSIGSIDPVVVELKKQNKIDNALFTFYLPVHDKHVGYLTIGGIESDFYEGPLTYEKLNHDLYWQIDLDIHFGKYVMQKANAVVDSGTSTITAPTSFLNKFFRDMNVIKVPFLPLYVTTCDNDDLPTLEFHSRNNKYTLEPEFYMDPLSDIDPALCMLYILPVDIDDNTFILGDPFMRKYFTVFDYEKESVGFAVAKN
Voltage-gated inwardly rectifying potassium channel KCNH2, sequence (Q12809 whole entry): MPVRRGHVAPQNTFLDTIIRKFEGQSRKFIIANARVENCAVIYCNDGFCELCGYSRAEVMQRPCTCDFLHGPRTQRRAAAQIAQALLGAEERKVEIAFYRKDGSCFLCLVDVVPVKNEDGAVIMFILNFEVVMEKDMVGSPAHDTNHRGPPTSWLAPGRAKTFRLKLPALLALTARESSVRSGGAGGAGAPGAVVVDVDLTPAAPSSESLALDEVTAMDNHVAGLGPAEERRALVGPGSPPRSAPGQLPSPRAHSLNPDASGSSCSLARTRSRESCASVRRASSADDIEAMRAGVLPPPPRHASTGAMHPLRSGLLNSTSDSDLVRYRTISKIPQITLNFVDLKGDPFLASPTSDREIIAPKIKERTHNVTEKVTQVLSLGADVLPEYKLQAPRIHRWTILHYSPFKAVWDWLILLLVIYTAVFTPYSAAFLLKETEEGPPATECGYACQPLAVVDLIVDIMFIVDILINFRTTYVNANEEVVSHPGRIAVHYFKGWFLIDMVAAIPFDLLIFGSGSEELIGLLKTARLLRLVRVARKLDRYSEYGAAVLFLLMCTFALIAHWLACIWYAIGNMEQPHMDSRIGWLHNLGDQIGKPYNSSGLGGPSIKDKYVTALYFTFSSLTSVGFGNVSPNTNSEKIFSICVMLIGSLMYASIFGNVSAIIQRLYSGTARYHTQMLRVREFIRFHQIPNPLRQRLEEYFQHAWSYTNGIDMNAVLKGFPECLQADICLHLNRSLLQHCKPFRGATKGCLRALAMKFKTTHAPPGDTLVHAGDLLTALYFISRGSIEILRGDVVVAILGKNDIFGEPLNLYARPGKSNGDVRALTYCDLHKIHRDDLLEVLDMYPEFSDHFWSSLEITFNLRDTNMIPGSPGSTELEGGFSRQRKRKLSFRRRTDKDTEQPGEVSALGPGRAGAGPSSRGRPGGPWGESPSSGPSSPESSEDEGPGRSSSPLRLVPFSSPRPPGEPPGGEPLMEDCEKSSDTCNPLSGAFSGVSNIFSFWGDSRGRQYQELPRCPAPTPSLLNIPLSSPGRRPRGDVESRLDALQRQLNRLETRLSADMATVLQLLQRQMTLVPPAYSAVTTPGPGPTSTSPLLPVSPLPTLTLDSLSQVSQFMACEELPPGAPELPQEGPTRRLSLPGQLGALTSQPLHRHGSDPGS

In the case of `C[C@H](NC(=O)[C@H]1CNC[C@@H]1c1ccc(C(F)(F)F)nc1)c1ccc(N(C)C)cc1`, the IC50 was above 50 µM in data set [1] and 0.14 µM in [2]. In data set [3], the selectivity ratio is above 357.
As to `C[C@@H](NC(=O)[C@H]1CNC[C@@H]1c1ccc(C(F)(F)F)nc1)c1ccc(N(C)C)cc1`, it took 11 µM to reach half-maximal inhibition in [2] (IC50).
`O=C(NCc1ccc(-c2ccccc2)cc1)[C@H]1CNC[C@@H]1c1ccc(C(F)(F)F)nc1` showed an IC50 in data set [2] of 5.9 µM.
`O=C(NCc1ccc(Br)cc1)[C@H]1CNC[C@@H]1c1ccc(C(F)(F)F)nc1` returned an IC50 in data set [2] of 1.2 µM.
`CN(C)c1ccc(CNC(=O)[C@H]2CNC[C@@H]2c2ccc(C(F)(F)F)nc2)cc1` returned an IC50 in [4] of 0.116 µM.
In data set [2], `O=C(NCc1ccc(-n2cccn2)cc1)[C@H]1CNC[C@@H]1c1ccc(C(F)(F)F)nc1` came in with an IC50 of 29 µM.
In [2], `CN(C)c1ccc(CNC(=O)[C@H]2CNC[C@@H]2c2ccc(C(F)(F)F)nc2)cn1` displayed an IC50 of 1 µM.
`C[C@H](NC(=O)[C@@H]1CNC[C@H]1c1ccc(C(F)(F)F)cc1)c1ccc(N(C)C)cc1`: half-maximal inhibition in [2] (IC50) was put at 0.13 µM.
Still for that read-out and setting: with `C[C@H](NC(=O)[C@@H]1CNC[C@H]1c1ccc(C(F)(F)F)nc1)c1ccc(N(C)C)cc1` the figure was 0.38 µM; with `O=C(NCc1ccc(C(F)(F)F)nc1)[C@H]1CNC[C@@H]1c1ccc(C(F)(F)F)nc1`, 18 µM.
As for `CN(C)c1ccc(CNC(=O)[C@H]2CNC[C@@H]2c2ccc(C(F)(F)F)cc2)cc1` (racemic), the IC50 was 9.41 µM in data set [1]; above 10 µM in [5]; above 10 µM in data set [6]; 0.2 µM in [2]; above 10 µM in data set [8]. Also, the “Intrinsic clearance (CLint)” value in data set [7] amounted to 6.2 µL/min/mg. In addition, the t1/2 in data set [9] worked out at 35 min.
In data set [2], `Cc1ccc([C@@H]2CNC[C@H]2C(=O)NCc2ccc(N(C)C)cc2)cc1Cl` (racemic) showed an IC50 of 0.23 µM.
Consider `CN(C)c1ccc(CNC(=O)[C@H]2CNC[C@@H]2c2ccc3ccsc3c2)cc1` (racemic), for which inhibition in data set [2] was half-maximal at 0.24 µM (IC50).
In turn, `CN(C)Cc1ccc(CNC(=O)[C@H]2CNC[C@@H]2c2ccc(C(F)(F)F)nc2)cc1` (racemic) had an IC50 in [2] above 20 µM.
For the compound `CN(C)c1ccc(CNC(=O)[C@@H]2CNC[C@H]2c2ccc(Oc3ccccc3)cc2)cc1` (racemic), the IC50 was 2.11 µM in [1]; above 10 µM in data set [5]; above 10 µM in [6]; 0.17 µM in data set [2]; above 10 µM in [8]. Further, the “Intrinsic clearance (CLint)” value in data set [7] turned out to be 7.2 µL/min/mg. Also, the t1/2 in data set [9] turned out to be 31 min.
The compound `CN(C)c1ccc(CNC(=O)[C@@H]2CNC[C@H]2c2cccc(Oc3ccccc3)c2)cc1` (racemic) displayed an IC50 in [2] of 1.8 µM.
Consider `CN(C)c1ccc(CNC(=O)[C@H]2CNC[C@@H]2c2ccc(C(F)(F)F)s2)cc1` (racemic), for which the IC50 in data set [2] is 1.1 µM.
Consider `CN(C)c1ccc(CNC(=O)[C@H]2CNC[C@@H]2c2ccc(C(C)(F)F)cc2)cc1` (racemic), for which the IC50 in data set [2] turned out to be 0.13 µM.
Same read-out and setting: with `CN(C)c1ccc(CNC(=O)[C@@H]2CNC[C@H]2c2ccc(Cl)cc2)cc1` (racemic) the figure was 0.68 µM; with `CN(C)c1ccc(CNC(=O)[C@@H]2CNC[C@H]2c2cnc3ccccc3c2)cc1` (racemic), 0.28 µM; with `CN(C)c1ccc(CNC(=O)[C@H]2CNC[C@@H]2c2ccc(C(F)F)cc2)cc1` (racemic), 0.25 µM.
For the compound `CN(C)c1ccc(CNC(=O)[C@H]2CNC[C@@H]2c2cc3ccccc3s2)cc1` (racemic), the IC50 in data set [2] is 0.27 µM.
In turn, `CN(C)c1ccc(CNC(=O)[C@H]2CNC[C@@H]2c2cc(C(F)(F)F)n(C)n2)cc1` (racemic) returned an IC50 in data set [2] of 5.3 µM.
`CN(C)c1ccc(CNC(=O)[C@H]2CNC[C@@H]2c2ccc(C(C)(C)C)s2)cc1` (racemic) gave an IC50 in [2] of 0.28 µM.
In the case of `CN(C)c1ccc(CNC(=O)[C@@H]2CNC[C@H]2c2ccc(C(F)(F)F)c(F)c2)cc1` (racemic), the IC50 in data set [1] was 8.54 µM; in data set [5] it was above 10 µM; in data set [6] it was above 10 µM; in [2] it was 0.14 µM; in [8] it was above 10 µM. Besides, the “Intrinsic clearance (CLint)” value in data set [7] worked out at 6.4 µL/min/mg. For the same compound, the t1/2 in data set [9] stood at 34 min.
In the case of `CCN(CC)c1ccc(CNC(=O)[C@@H]2CNC[C@H]2c2ccc(C(F)(F)F)cc2)cc1` (racemic), the IC50 in data set [1] is 4.74 µM; in data set [5], above 10 µM; in data set [6], above 10 µM; in data set [2], 0.6 µM; in data set [8], above 10 µM.
The compound `CN(C)c1ccc(CNC(=O)[C@@H]2CNC[C@H]2c2ccc(C(F)(F)F)cc2F)cc1` (racemic) came in with an IC50 in data set [2] of 0.89 µM.
`CN(C)c1ccc(CNC(=O)[C@H]2CNC[C@@H]2c2cc3ccccc3o2)cc1` (racemic) had an IC50 in data set [2] of 0.15 µM.
As for `COc1ccc(CNC(=O)[C@@H]2CNC[C@H]2c2ccc(C(F)(F)F)cc2)cc1` (racemic), the inhibition result in [10], in [11] and in data set [13] was “inactive” in each case. Moreover, the figures for the IC50 in data set [2] and in [12] were 0.36 to 0.385 µM and 33 µM, respectively. For the same compound, the half-life at 1 µM in data set [9] (liver microsomes) stood at 37 min.
In data set [2], `O=C(NCc1ccccc1)[C@@H]1CNC[C@H]1c1ccc(C(F)(F)F)cc1` (racemic) gave an IC50 of 4.3 µM.
In [2], `CN(C)c1ccc(CNC(=O)[C@@H]2CNC[C@H]2CCc2ccc(C(F)(F)F)cc2)cc1` (racemic) showed an IC50 of 4.4 µM.
On to `Cc1ccc(CNC(=O)[C@@H]2CNC[C@H]2c2ccc(C(F)(F)F)cc2)cc1` (racemic), for which the clearance in data set [14] was 3.12 L/h/kg. Moreover, the IC50 in data set [5] is above 10 µM; in data set [6], above 10 µM; in [2], 0.46 µM; in [8], above 10 µM. For the same compound, the “Intrinsic clearance (CLint)” value in data set [7] came out at 1.4 µL/min/mg. The compound also gave a half-life in [15] of 102 min. For the same compound, the t1/2 in data set [9] came to 161 min. The Vd in data set [16] was 7.3 L/kg.
`Cc1ccc([C@@H]2CNC[C@H]2C(=O)NCc2ccc(N(C)C)cc2)cc1` (racemic) showed an IC50 in data set [2] of 0.75 µM.
Turning to `CN(C)c1ccc(CNC(=O)[C@H]2CNC[C@@H]2c2cccc(S(F)(F)(F)(F)F)c2)cc1` (racemic), the IC50 in data set [2] turned out to be 0.41 µM.
On the same count and under the same terms, with `CN1CCc2cc(CNC(=O)[C@@H]3CNC[C@H]3c3ccc(C(F)(F)F)cc3)ccc21` (racemic) the figure was 0.23 µM; with `O=C(NCc1ccc(N2CCCC2)cc1)[C@H]1CNC[C@@H]1c1ccc(C(F)(F)F)nc1` (racemic), 0.64 µM; with `CN(C)c1ccc(CNC(=O)[C@H]2CNC[C@@H]2c2cnc(C(F)(F)F)s2)cc1` (racemic), 1.5 µM.
For the compound `CN(C)c1ccc(CNC(=O)[C@@H]2CNC[C@H]2c2ccc(C(F)(F)F)c(Cl)c2)cc1` (racemic), the IC50 in [1] is 7.56 µM; in [5], above 10 µM; in data set [6] it was above 10 µM; in [2], 0.083 µM; in data set [8] it was above 10 µM. In data set [7], the “Intrinsic clearance (CLint)” value turned out to be 6.7 µL/min/mg. Moreover, the t1/2 in data set [9] is 33 min.
In [2], `CN(C)c1ccc(CNC(=O)[C@@H]2CNC[C@H]2c2ccc(Oc3ccccn3)cc2)cc1` (racemic) registered an IC50 of 16 µM.
For the compound `CN(C)c1ccc(CNC(=O)[C@H]2CNC[C@@H]2c2cnc(C(F)(F)F)nc2)cc1` (racemic), the IC50 was above 50 µM in data set [1] and 0.45 µM in data set [2]. Besides, the selectivity ratio in data set [3] was above 111.
The compound `CN(C)c1ccc(CNC(=O)[C@@H]2CNC[C@H]2c2ccc(C(F)(F)F)cc2Cl)cc1` (racemic) had an IC50 in data set [2] of 0.34 µM.
On to `CN(C)c1ccc(CNC(=O)[C@@H]2CNC[C@H]2c2ccc(C(C)(C)C)cc2)cc1` (racemic), for which half-maximal inhibition in data set [2] (IC50) required 0.19 µM.
Regarding `CN(C)c1ccc(CNC(=O)[C@H]2CNC[C@@H]2c2ccc(S(F)(F)(F)(F)F)cc2)cc1` (racemic), half-maximal inhibition in [2] (IC50) required 0.47 µM.
Compound `CN(C)c1ccc(CNC(=O)[C@@H]2CNC[C@H]2c2ccc(Cl)c(Cl)c2)cc1` (racemic) displayed an IC50 in data set [2] of 0.13 µM.
With `CN(C)c1ccc(CNC(=O)[C@H]2CNC[C@@H]2c2ccc3sccc3c2)cc1` (racemic), 0.22 µM corresponded to half-maximal inhibition in data set [2] (IC50).
Consider `C[C@@H]1CC[C@H]2[C@@H](C)C(=O)O[C@@H]3O[C@@]4(C)CC[C@@H]1[C@]32OO4` [ARTEMISININ], for which the IC50 in data set [2] was found to be 0.054 µM.
Turning to `CCN(CC)CCCC(C)Nc1ccnc2cc(Cl)ccc12` (configuration not stated) [CHLOROQUINE], in data set [17], the inhibition in vivo at 10 mg/kg came to 95%.
